The source of these data is patent US20240208945A1, “6-CARBAMATE SUBSTITUTED HETEROARYL RING DERIVATIVES” (MEDSHINE DISCOVERY INC., priority 2021, published 2024).

Where a name gives a salt, the structure may show the parent alone.

The test system of data set [1] is Human pancreatic cancer cells (Miapaca2). Kind of data set: In vivo drug efficacy in the Miapaca2 nude mouse xenograft tumor model. More on the design: species or system Balb/c nude mice. Particulars: Miapaca-2 xenograft, AMG-510 5 mg/kg once a day, compound 14 hydrochloride 50 mg/kg twice a day, intragastric. How it is done:
Human pancreatic cancer cells (Miapaca2) were cultured in vitro as a monolayer on an adherent surface, and the culture conditions were DMEM medium plus 10% fetal bovine serum, cultured in a 37° C., 5% CO2 incubator. The cells were treated with trypsin-EDTA for routine digestion and passaged two to three times a week. When the cell saturation was 80% to 90% and the number reached the requirements, the cells were collected, counted, and inoculated.
Balb/c nude mice, female, 6 to 7 weeks old, were purchased from Shanghai SIPPR-BK Lab Animal Co., Ltd.
0.2 mL (5×10^6) Miapaca-2 cells (plus Matrigel, volume ratio of 1:1) were subcutaneously inoculated on the right back of each mouse, and the administration in groups began when the average tumor volume reached 118 mm^3.
The tumor diameter was measured twice a week with a vernier caliper, and the tumor volume was measured in cubic millimeters, calculated by the following formula: V=0.5a×b^2, wherein a and b are the long and short diameters of the tumor, respectively. The tumor inhibitory efficacy of the test compound was evaluated by using TGI (%). TGI (%) reflects the rate of tumor growth inhibition. […]

Data set [2] concerns the target binding of KRAS(G12C) to SOS1 (Homo sapiens (Human), UniProt Q07889). In words: KRAS(G12C) and SOS1 binding assay (HTRF). Particulars: 25° C., 60 minutes. The source says: The small molecular compound binds to the catalytic site of SOS1, thus inhibiting the binding of SOS1 to KRAS (G12C). When the binding of fluorescently labeled SOS1 protein to fluorescently labeled KRAS (G12C) protein is inhibited, the emitted fluorescence changes. The ability of small molecules to prevent the binding of SOS1 to KRAS (G12C) can be tested by detecting changes in fluorescence. A homogeneous time-resolved fluorescence (HTRF) binding assay was used to detect the ability of the compounds of the present disclosure to inhibit the binding of SOS1 to KRAS (G12C).
KRAS (G12C) protein was expressed and purified by Wuhan AtaGenix Biotechnology Co., Ltd., SOS1 exchange domin (564-1049) protein (Human recombinant) was purchased from Cytoskeleton, Mab Anti 6HIS-XL665 and Mab Anti GST-Eu cryptate were purchased from Cisbio. Multimode microplate reader Nivo5 was purchased from PerkinElmer.
1× buffer preparation (ready-to-use): Hepes: 5 mM; NaCl: 150 mM; EDTA: 10 mM; Igepal: 0.0025%; KF: 100 mM; DTT: 1 mM; BSA: […];
The test compounds were 5-fold diluted with DMSO using a multi-channel pipette to the 8th concentration, i.e., diluted from 1 mM to 0.064 μM.
The test compound was diluted by gradient with 1× buffer to a working solution with 2% DMSO. 5 μL/well of the working solution was added to corresponding wells, and the corresponding concentration gradient was 20 μM to […]. Duplicate experiment was set. The working solution was centrifuged at 1000 rpm for 1 minute.
A mixed working solution of KRAS(G12C) (200 nM) and Mab Anti GST-Eu cryptate (1 ng/μL) was prepared with 1× buffer, and the mixed working solution was incubated at 25° C. for 5 minutes, and 2.5 μL/well of the mixed working solution was added to the corresponding wells.
A mixed working solution of SOS1 (80 nM) and Mab Anti 6HIS-XL665 ([…]) was prepared with 1× buffer, and 2.5 μL/well of the mixed working solution was added to the corresponding wells. 2.5 μL of Mab Anti 6HIS-XL665 ([…]) diluent was added to blank wells. At this time, the final concentration gradient of the compound was diluted from 10 μM to 0.64 nM, KRAS(G12C) ([…]), MAb Anti GST-Eu cryptate (0.25 ng/μL), SOS1 (20 nM), Mab Anti 6HIS-XL665 (2 g/μL), the reaction system was placed at 25° C. for 60 minutes. After the reaction was completed, the multimode microplate reader was used to read HTRF.
Using the equation (Sample−Min)/(Max−Min)×100% to convert the raw data into inhibition rate, the IC50 value might be obtained by curve fitting with four parameters (obtained by “log (inhibitor) vs. response—Variable slope” mode in GraphPad Prism).

The next data set concerns p-ERK in DLD-1 cells. Kind of data set: p-ERK inhibitory activity test in DLD-1 cells (HTRF Phospho-ERK1/2 kit). The data set is classed as cell-based. The following applies: Homo sapiens, 1 hour incubation. On the procedure:
DLD-1 cells were purchased from Nanjing Cobioer; 1640 medium was purchased from Biological Industries; fetal bovine serum was purchased from Biosera; Advanced Phospho-ERK1/2 (THR202/TYR204) KIT was purchased from Cisbio.
DLD-1 cells were seeded in a transparent 96-well cell culture plate, with 80 μL of cell suspension per well and 8000 DLD-1 cells per well. The cell plate was incubated in a carbon dioxide incubator at 37° C. overnight; • the test compound was diluted to 2 mM with 100% DMSO as the first concentration, and then 5-fold diluted to the 8th concentration with a pipette, that is, diluted from 2 mM to 0.026 μM. 2 μL of compound was added to 78 μL of cell starvation medium. After mixing well, 20 μL of compound solution was taken and added to the corresponding cell plate wells, and the cell plate was put back to the carbon dioxide incubator to continue to incubate for 1 hour; at this time, the concentration of the compound was from 10 μM to 0.128 nM, and the concentration of DMSO was 0.5%; • after the incubation was completed, the cell supernatant was discarded, and 50 μL of cell lysate was added to each well, and incubated at room temperature for 30 minutes with shaking; • Phospho-ERK1/2 Eu Cryptate antibody and Phospho-ERK1/2 d2 antibody were 20-fold diluted using Detection buffer; • 16 μL of cell lysate supernatant per well was put into a new 384 white microplate, then 2 μL of Phospho-ERK1/2 Eu Cryptate antibody diluent and 2 μL of Phospho-ERK1/2 d2 antibody diluent were added thereto and incubated at room temperature for 4 hours; • after the incubation was completed, a multimode microplate reader was used to read HTRF excitation: 320 nm, emission: 615 nm, 665 nm.
Using the equation (Sample−Min)/(Max−Min)*100% to convert the raw data into inhibition rate, the IC50 value might be obtained by curve fitting with four parameters (obtained by “log (inhibitor) vs. response—Variable slope” mode in GraphPad Prism). • Max well: Positive control well reading is 1× lysate • Min well: Negative control well reading is 0.5% DMSO cell well cell lysate

Data set [3] in a line: Pharmacokinetic evaluation in CD-1 mice (IV and oral). The data set is classed as in vivo. The following applies: mouse, plasma. On the procedure:
CD-1 mice (male, 7 to 9 weeks old, Shanghai SLAC)
The pharmacokinetic characteristics of the compound in rodents after intravenous injection and oral administration were tested according to the standard protocol. In the experiment, the candidate compound was formulated into clear solutions, and a single intravenous injection and oral administration were given to mice. The vehicle for intravenous injection and oral administration was a mixed vehicle composed of 10% dimethyl sulfoxide and 90% hydroxypropyl β-cyclodextrin with a content of 10%. In this project, four female CD-1 mice were used, and two mice were administered intravenously at a dose of 1 mg/kg. Plasma samples were collected at 0.033, 0.083, 0.25, 0.5, 1, 2, 4, 8, and 12 hours after administration. The other two mice were administered orally by gavage at a dose of 2 mg/kg. Plasma samples were collected at 0.083, 0.25, 0.5, 1, 2, 4, 8, and 12 hours after administration, […] at 4° C. for 10 minutes at 3,200×g, and the supernatants were separated from the plasma samples. The protein was precipitated by adding 20 times the volume of methanol solution containing internal standard, […] at 12000×g for 15 minutes, centrifuged at 4° C. 50 μL of the supernatant was transferred to a 96-well plate and centrifuged for a second time to take the supernatant for injection. The plasma concentration was quantitatively analyzed by LC-MS/MS analysis method, and the pharmacokinetic parameters were calculated, such as peak concentration (Cmax), clearance rate (CL), half-life (T1/2), volume of distribution at steady state (Vdss), area under drug-time curve (AUC0-last), bioavailability (F).

Sequence of binding of KRAS(G12C) to SOS1 (Q07889 564-1049, stated change not applied): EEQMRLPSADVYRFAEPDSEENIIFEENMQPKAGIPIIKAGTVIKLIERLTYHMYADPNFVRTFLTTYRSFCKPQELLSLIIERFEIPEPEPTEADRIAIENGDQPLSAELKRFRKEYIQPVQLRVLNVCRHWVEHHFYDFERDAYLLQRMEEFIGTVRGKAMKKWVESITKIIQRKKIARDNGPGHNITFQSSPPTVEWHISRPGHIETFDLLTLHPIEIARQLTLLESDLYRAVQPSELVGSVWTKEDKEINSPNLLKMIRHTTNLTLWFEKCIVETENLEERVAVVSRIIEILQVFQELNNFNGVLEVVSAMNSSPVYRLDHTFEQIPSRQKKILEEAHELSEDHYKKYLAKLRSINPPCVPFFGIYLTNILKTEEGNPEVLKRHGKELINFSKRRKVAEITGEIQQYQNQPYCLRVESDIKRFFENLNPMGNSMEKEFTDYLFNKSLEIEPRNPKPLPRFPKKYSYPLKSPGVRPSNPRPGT

With `C=CC(=O)N1CCN(c2nc(=O)n(-c3c(C)ccnc3C(C)C)c3nc(-c4c(O)cccc4F)c(F)cc23)[C@@H](C)C1` (atropisomer, axis not shown) [AMG-510], the “Mean tumor volume ± SEM (day 22)” value in data set [1] is reported as 819 ± 407 mm^3. In addition, in data set [1] (day 22), the TGI came to 59.4%.
Regarding `COc1cc2nc(C)nc(N[C@H](C)c3cccc(C(F)(F)C(C)(C)O)c3F)c2cc1OC(=O)N1CCN(C)CC1C` (stereo partly shown) [Hydrochloride of compound 14], the IC50 in data set [2] came to 40.4 nM; in the data set on p-ERK in DLD-1 cells, 78.9 nM. Moreover, the Cmax in data set [3] (IV 1 mg/kg and oral 2 mg/kg study, read-out: Peak concentration Cmax) was 92.3 nM. Further, the bioavailability in data set [3] (IV 1 mg/kg, PO 2 mg/kg, read-out: Bioavailability F) was found to be 33.9%. Besides, in data set [3] (IV 1 mg/kg, read-out: Clearance rate CL), the clearance stood at 29.2 mL/min/kg. Also, the half-life in data set [3] (IV 1 mg/kg, read-out: Half life T1/2 (IV) (converted)) was 2.96 h. The Vd in data set [3] (IV 1 mg/kg, read-out: Volume of distribution at steady state Vdss) is 4.95 L/kg. The AUC(0-t) in data set [3] (PO 2 mg/kg, read-out: Area under drug-time curve AUC0-last PO) came out at 0.606 µM·h.
